Measured values from publication PMC11259132, “Tyrosine phenol-lyase inhibitor quercetin reduces fecal phenol levels in mice” (PNAS Nexus, 2024).
Read-outs that look alike come from different tables or passages of the source.

Assays:
Type in all cases: biochemical
[1] = target: T1, Tyrosine phenol-lyase (TPL) (Morganella morganii, UniProt J7TAF3); assay: recombinant TPL assay, phenol by LC-MS; Lineweaver-Burk kinetics
T1 construct: recombinant TPL from M. morganii ssp. morganii (JCM1672), pET-15b
T1 sequence (J7TAF3 1-456): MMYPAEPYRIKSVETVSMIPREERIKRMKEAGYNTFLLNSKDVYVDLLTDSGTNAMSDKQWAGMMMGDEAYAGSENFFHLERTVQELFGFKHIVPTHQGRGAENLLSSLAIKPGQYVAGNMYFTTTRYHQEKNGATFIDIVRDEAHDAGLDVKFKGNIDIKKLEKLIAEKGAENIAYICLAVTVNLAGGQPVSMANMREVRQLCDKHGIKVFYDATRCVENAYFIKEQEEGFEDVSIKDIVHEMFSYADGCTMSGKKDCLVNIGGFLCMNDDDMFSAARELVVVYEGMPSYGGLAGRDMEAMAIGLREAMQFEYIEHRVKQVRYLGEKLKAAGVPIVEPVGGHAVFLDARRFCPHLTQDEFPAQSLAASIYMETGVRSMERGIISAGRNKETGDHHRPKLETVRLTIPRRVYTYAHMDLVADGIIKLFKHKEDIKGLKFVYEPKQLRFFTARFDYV

[2] = target: T2, Tyrosine phenol-lyase (TPL) (Citrobacter koseri, UniProt A8AM34); assay: recombinant TPL assay at […] inhibitor, phenol by LC-MS
T2 construct: recombinant TPL from C. koseri (JCM1658), pET-15b
T2 sequence (A8AM34 1-465): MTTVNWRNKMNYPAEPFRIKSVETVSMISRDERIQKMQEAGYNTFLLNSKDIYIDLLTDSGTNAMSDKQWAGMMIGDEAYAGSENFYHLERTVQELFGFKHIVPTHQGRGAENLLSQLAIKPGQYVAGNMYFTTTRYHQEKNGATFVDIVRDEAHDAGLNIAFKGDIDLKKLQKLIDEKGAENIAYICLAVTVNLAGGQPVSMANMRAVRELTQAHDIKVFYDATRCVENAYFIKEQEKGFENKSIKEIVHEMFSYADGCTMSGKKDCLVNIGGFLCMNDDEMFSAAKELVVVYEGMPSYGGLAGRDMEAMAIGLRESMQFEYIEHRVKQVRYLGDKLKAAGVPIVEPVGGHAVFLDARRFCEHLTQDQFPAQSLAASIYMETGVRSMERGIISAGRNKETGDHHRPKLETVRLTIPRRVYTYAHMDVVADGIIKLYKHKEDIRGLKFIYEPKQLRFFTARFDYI

[3] = target: T1, Tyrosine phenol-lyase (TPL)

Row | SMILES | recombinant TPL assay at 500 μM inhibitor, phenol by LC-MS [3] | further results
1 | N[C@@H](Cc1ccc(O)cn1)C(=O)O [2-aza-Tyr] | – | Ki ([1]; read-out: Ki): 42 µM
2 | O=c1c(O)c(-c2ccc(O)c(O)c2)oc2cc(O)cc(O)c12 [quercetin] | – | recombinant TPL assay at 500 μM inhibitor, phenol by LC-MS [2]: The strongest inhibitory activity of quercetin was confirmed using another recombinant TPL isolated from Citrobacter koseri (JCM1658; Fig. 1B); Ki [1]: 19.9 µM
3 | O=c1cc(-c2ccc(O)c(O)c2)oc2cc(O)cc(O)c12 [luteolin] | structural analogs of quercetin, including taxifolin, kaempferol, luteolin, and myricetin, significantly inhibited TPL-catalyzed phenol production | –
4 | O=C1c2c(O)cc(O)cc2O[C@H](c2ccc(O)c(O)c2)[C@H]1O [taxifolin] | structural analogs of quercetin, including taxifolin, kaempferol, luteolin, and myricetin, significantly inhibited TPL-catalyzed phenol production | –
5 | O=c1c(O)c(-c2ccc(O)cc2)oc2cc(O)cc(O)c12 [kaempferol] | structural analogs of quercetin, including taxifolin, kaempferol, luteolin, and myricetin, significantly inhibited TPL-catalyzed phenol production | –
